Test results taken from PubChem BioAssay AID1259407 (Chemical Carcinogenesis Research Information System (CCRIS), 2018).
Calls of active or inactive are those of the source. The rule behind the calls is not given here.

System: CCRIS mutagenicity, Ames/micronucleus/aberration tests
Assay: CCRIS mutagenicity studies
[1] = Test System: AMES SALMONELLA TYPHIMURIUM, Strain/Indicator: TA98, Metabolic Activation: NONE, Method: STANDARD PLATE
[2] = Test System: AMES SALMONELLA TYPHIMURIUM, Strain/Indicator: TA100, Metabolic Activation: NONE, Method: STANDARD PLATE
[3] = Test System: AMES SALMONELLA TYPHIMURIUM, Strain/Indicator: TA100, Metabolic Activation: RAT, LIVER, S-9, AROCLOR 1254, Method: STANDARD PLATE
[4] = Test System: AMES SALMONELLA TYPHIMURIUM, Strain/Indicator: TA1535, Metabolic Activation: NONE, Method: STANDARD PLATE
[5] = Test System: AMES SALMONELLA TYPHIMURIUM, Strain/Indicator: TA1535, Metabolic Activation: RAT, LIVER, S-9, AROCLOR 1254, Method: STANDARD PLATE
[6] = Test System: AMES SALMONELLA TYPHIMURIUM, Strain/Indicator: TA1537, Metabolic Activation: NONE, Method: STANDARD PLATE
[7] = Test System: AMES SALMONELLA TYPHIMURIUM, Strain/Indicator: TA98, Metabolic Activation: RAT, LIVER, S-9, AROCLOR 1254, Method: STANDARD PLATE
[8] = Test System: AMES SALMONELLA TYPHIMURIUM, Strain/Indicator: TA98, Metabolic Activation: HAMSTER, LIVER, S-9, AROCLOR 1254 (10%), Method: PREINCUBATION
[9] = Test System: AMES SALMONELLA TYPHIMURIUM, Strain/Indicator: TA98, Metabolic Activation: NONE, Method: PREINCUBATION
[10] = Test System: AMES SALMONELLA TYPHIMURIUM, Strain/Indicator: TA98, Metabolic Activation: RAT, LIVER, S-9, AROCLOR 1254 (10%), Method: PREINCUBATION
[11] = Test System: AMES SALMONELLA TYPHIMURIUM, Strain/Indicator: TA100, Metabolic Activation: HAMSTER, LIVER, S-9, AROCLOR 1254 (10%), Method: PREINCUBATION
[12] = Test System: AMES SALMONELLA TYPHIMURIUM, Strain/Indicator: TA100, Metabolic Activation: NONE, Method: PREINCUBATION
[13] = Test System: AMES SALMONELLA TYPHIMURIUM, Strain/Indicator: TA100, Metabolic Activation: RAT, LIVER, S-9, AROCLOR 1254 (10%), Method: PREINCUBATION
[14] = Test System: AMES SALMONELLA TYPHIMURIUM, Strain/Indicator: TA1535, Metabolic Activation: HAMSTER, LIVER, S-9, AROCLOR 1254 (10%), Method: PREINCUBATION
[15] = Test System: AMES SALMONELLA TYPHIMURIUM, Strain/Indicator: TA1535, Metabolic Activation: NONE, Method: PREINCUBATION
[16] = Test System: AMES SALMONELLA TYPHIMURIUM, Strain/Indicator: TA1535, Metabolic Activation: RAT, LIVER, S-9, AROCLOR 1254 (10%), Method: PREINCUBATION
[17] = Test System: AMES SALMONELLA TYPHIMURIUM, Strain/Indicator: TA1537, Metabolic Activation: NONE, Method: PREINCUBATION

## CCc1ccc2c(c1[N+](=O)[O-])C(=O)c1ccccc1C2=O
[1]
  mutagenic call: inactive; negative
[2]
  mutagenic call: inactive; negative
[3]
  mutagenic call: active; positive
[4]
  mutagenic call: inactive; negative
[5]
  mutagenic call: inactive; negative
[6]
  mutagenic call: inactive; negative
Test System: AMES SALMONELLA TYPHIMURIUM, Strain/Indicator: TA1538, Metabolic Activation: NONE, Method: STANDARD PLATE
  mutagenic call: inactive; negative

## Cc1cc(N(C)C)ccc1N=Nc1ccccc1
Test System: AMES SALMONELLA TYPHIMURIUM, Strain/Indicator: TA98, Metabolic Activation: RAT, LIVER, MICROSOMES, 2-METHYL-4-DIMETHYLAMINOAZOBENZENE, Method: PREINCUBATION
  mutagenic call: inactive; negative
Test System: AMES SALMONELLA TYPHIMURIUM, Strain/Indicator: TA98, Metabolic Activation: RAT, LIVER, MICROSOMES, AROCLOR 1254, Method: PREINCUBATION
  mutagenic call: active; positive
Test System: AMES SALMONELLA TYPHIMURIUM, Strain/Indicator: TA98, Metabolic Activation: RAT, LIVER, MICROSOMES, Method: PREINCUBATION
  mutagenic call: inactive; negative
[7]
  mutagenic call: active; positive
Test System: AMES SALMONELLA TYPHIMURIUM, Strain/Indicator: TA98, Metabolic Activation: RAT, LIVER, S-9, KC500 OR PHENOBARBITAL, Method: LIQUID SUSPENSION
  mutagenic call: active; positive
[3]
  mutagenic call: active; positive
Test System: AMES SALMONELLA TYPHIMURIUM, Strain/Indicator: TA100, Metabolic Activation: RAT, LIVER, S-9, KC500 OR PHENOBARBITAL, Method: LIQUID SUSPENSION
  mutagenic call: active; positive
Test System: UDS RODENT HEPATOCYTES, Strain/Indicator: THY INCORP (NON-S-PHASE), Method: AUTORADIOGRAPHY
  mutagenic call: active; positive

## Cc1ccc(CO)cc1
Test System: AMES SALMONELLA TYPHIMURIUM, Strain/Indicator: TA97, Metabolic Activation: HAMSTER, LIVER, S-9, AROCLOR 1254 (10%), Method: PREINCUBATION
  mutagenic call: inactive; negative
Test System: AMES SALMONELLA TYPHIMURIUM, Strain/Indicator: TA97, Metabolic Activation: HAMSTER, LIVER, S-9, AROCLOR 1254 (30%), Method: PREINCUBATION
  mutagenic call: inactive; negative
Test System: AMES SALMONELLA TYPHIMURIUM, Strain/Indicator: TA97, Metabolic Activation: NONE, Method: PREINCUBATION
  mutagenic call: inactive; negative
Test System: AMES SALMONELLA TYPHIMURIUM, Strain/Indicator: TA97, Metabolic Activation: RAT, LIVER, S-9, AROCLOR 1254 (10%), Method: PREINCUBATION
  mutagenic call: inactive; negative
Test System: AMES SALMONELLA TYPHIMURIUM, Strain/Indicator: TA97, Metabolic Activation: RAT, LIVER, S-9, AROCLOR 1254 (30%), Method: PREINCUBATION
  mutagenic call: inactive; negative
[8]
  mutagenic call: inactive; negative
Test System: AMES SALMONELLA TYPHIMURIUM, Strain/Indicator: TA98, Metabolic Activation: HAMSTER, LIVER, S-9, AROCLOR 1254 (30%), Method: PREINCUBATION
  mutagenic call: inactive; negative
[9]
  mutagenic call: inactive; negative
[10]
  mutagenic call: inactive; negative
Test System: AMES SALMONELLA TYPHIMURIUM, Strain/Indicator: TA98, Metabolic Activation: RAT, LIVER, S-9, AROCLOR 1254 (30%), Method: PREINCUBATION
  mutagenic call: inactive; negative
[11]
  mutagenic call: inactive; negative
Test System: AMES SALMONELLA TYPHIMURIUM, Strain/Indicator: TA100, Metabolic Activation: HAMSTER, LIVER, S-9, AROCLOR 1254 (30%), Method: PREINCUBATION
  mutagenic call: inactive; negative
[12]
  mutagenic call: inactive; negative
[2]
  mutagenic call: inactive; negative
[13]
  mutagenic call: inactive; negative
Test System: AMES SALMONELLA TYPHIMURIUM, Strain/Indicator: TA100, Metabolic Activation: RAT, LIVER, S-9, AROCLOR 1254 (30%), Method: PREINCUBATION
  mutagenic call: inactive; negative
[14]
  mutagenic call: inactive; negative
Test System: AMES SALMONELLA TYPHIMURIUM, Strain/Indicator: TA1535, Metabolic Activation: HAMSTER, LIVER, S-9, AROCLOR 1254 (30%), Method: PREINCUBATION
  mutagenic call: inactive; negative
[15]
  mutagenic call: inactive; negative
[16]
  mutagenic call: inactive; negative
Test System: AMES SALMONELLA TYPHIMURIUM, Strain/Indicator: TA1535, Metabolic Activation: RAT, LIVER, S-9, AROCLOR 1254 (30%), Method: PREINCUBATION
  mutagenic call: inactive; negative
Test System: AMES SALMONELLA TYPHIMURIUM, Strain/Indicator: TA1537, Metabolic Activation: HAMSTER, LIVER, S-9, AROCLOR 1254 (30%), Method: PREINCUBATION
  mutagenic call: inactive; negative
[17]
  mutagenic call: inactive; negative
Test System: AMES SALMONELLA TYPHIMURIUM, Strain/Indicator: TA1537, Metabolic Activation: RAT, LIVER, S-9, AROCLOR 1254 (30%), Method: PREINCUBATION
  mutagenic call: inactive; negative

## COC(=O)[C@@H](C)Cl
[12]
  mutagenic call: active; positive
Test System: AMES SALMONELLA TYPHIMURIUM, Strain/Indicator: TA100, Metabolic Activation: RAT, LIVER, S-9, PCB, Method: PREINCUBATION
  mutagenic call: active; positive

## CC1(C)SC2[C@H](NC(=O)C(N)c3ccccc3)C(=O)N2[C@H]1C(=O)O.[Cl][Pt].[H+] (stereo partly specified)
Test System: MOUSE LYMPHOMA, Strain/Indicator: L5178Y(LY-R) (HGPRT)/6-THIOGUANINE, Metabolic Activation: NONE
  mutagenic call: inactive; negative

## CCS(=O)(=O)n1ncc(Cl)c(Cl)c1=O
[1]
  mutagenic call: inactive; negative
[7]
  mutagenic call: inactive; negative
[2]
  mutagenic call: active; positive
[3]
  mutagenic call: active; positive
[4]
  mutagenic call: inactive; negative
[5]
  mutagenic call: inactive; negative
[6]
  mutagenic call: inactive; negative
Test System: AMES SALMONELLA TYPHIMURIUM, Strain/Indicator: TA1537, Metabolic Activation: RAT, LIVER, S-9, AROCLOR 1254, Method: STANDARD PLATE
  mutagenic call: inactive; negative

## Cc1ccc(C)c2c1[nH]c1ccccc12
[1]
  mutagenic call: inactive; negative
Test System: AMES SALMONELLA TYPHIMURIUM, Strain/Indicator: TA98, Metabolic Activation: RAT LIVER S-9, AROCLOR 1254, Method: STANDARD PLATE
  mutagenic call: active; positive
[2]
  mutagenic call: inactive; negative
Test System: AMES SALMONELLA TYPHIMURIUM, Strain/Indicator: TA100, Metabolic Activation: RAT LIVER S-9, AROCLOR 1254, Method: STANDARD PLATE
  mutagenic call: inactive; negative

## Cc1ccc(OP(=O)(Oc2ccc(C)cc2C)Oc2ccc(C)cc2C)c(C)c1
[8]
  mutagenic call: inactive; negative
[9]
  mutagenic call: inactive; negative
[10]
  mutagenic call: inactive; negative
[11]
  mutagenic call: inactive; negative
[12]
  mutagenic call: inactive; negative
[13]
  mutagenic call: inactive; negative
[14]
  mutagenic call: inactive; negative
[15]
  mutagenic call: inactive; negative
[16]
  mutagenic call: inactive; negative
Test System: AMES SALMONELLA TYPHIMURIUM, Strain/Indicator: TA1537, Metabolic Activation: HAMSTER, LIVER, S-9, AROCLOR 1254 (10%), Method: PREINCUBATION
  mutagenic call: inactive; negative
[17]
  mutagenic call: inactive; negative
Test System: AMES SALMONELLA TYPHIMURIUM, Strain/Indicator: TA1537, Metabolic Activation: RAT, LIVER, S-9, AROCLOR 1254 (10%), Method: PREINCUBATION
  mutagenic call: inactive; negative
